From patent US20260000763A1, “Methods of Manufacturing Therapeutic Cells” (The Board of Trustees of the Leland Stanford Junior …, priority 2022, published 2026)

Experiments:
Assay type in all cases: cell-based
[1] = tested on: CAR T cells; test: Seahorse analysis, ATP5 expression and ATP levels of CAR T cells manufactured in inosine
Protocol: A and B: Seahorse analysis of CAR T cells at day 11 post-activation. Representative graphs of n=1-2 donors are shown. P values were determined by unpaired two-tailed t-tests. C: Flow analysis of ATP5 expression by CD8+ CAR T cells at day 17 post-activation. Representative histograms of two donors are shown. D: ATP levels in CAR T cells at day 14 post activation. Results from two independent experiments are shown (n=2).
Studied next was the effect of inosine on CAR T cell metabolism. […] Furthermore, the total amount of ATP generated by CAR T cells grown in the presence of inosine was increased (FIG. 4D).

[2] = tested on: GD2 CAR T cells; test: Large-scale manufacturing of GD2.bbz CAR T cells in G-Rex system in regular or inosine media
Protocol: Enriched CD4/CD8+ T cells from a healthy donor were cultured in regular or inosine-containing media in the G-Rex system. Cells were analyzed at days 7 post-activation. A: Scheme of the large scale experiment. B: Expansion of GD2 CAR T cells manufactured in control vs inosine-containing media. N=1 out of two donors is shown. C: Number of CAR+ T cells at the day 7 post activation. D: Viability of T cells. E: Percentage of CAR+ and CD4 vs CD8 T cells. Data from one representative donor is shown. N=2. F: Relative frequency of terminally differentiated effector (EMRA; CD45RA+ CCR7-), naïve (CD45RA+ CCR7+), central memory (CM; CD45RA-CCR7+), and effector memory (EM; CD45RA-CCR7-) cells in CD8+ control or inosine-grown GD2 CAR T cells. G: IL-2 and IFNγ secretion by CAR T cells stimulated with 143b, mg63.3 or Nalm6-GD2 tumor lines. […] P values were determined by unpaired two-tailed t-tests.
(§1) FIG. 13A-13H: Clinical scale manufacturing of clinical grade GD2-CAR T cells using media containing inosine, improves CAR product quality. A: Schematic of large-scale manufacturing of GD2.bbz-CAR+ T cells in a semi-closed G-Rex system in glucose-or inosine-containing media. 7 days post-activation, transduction efficiency, percentage of viable cells, and CD4/CD8 ratio of GD2+ cells were assessed by flow cytometry. […] B: Expansion of total viable T cells manufactured in control (black) vs. inosine (green)-containing media and (Right) corresponding number of CAR+ cells at day 7. […] C: IL-2 and IFNg secretion by CAR T cells stimulated for 24 hrs with 143b, mg63.3 or Nalm6-GD2 tumor lines. […] D: NSG mice were injected with 1×10^6 Nalm6 leukemia cells. On day 3 post-tumor injection, 2×10^6 of mock or GD2.bbz-CAR T cells manufactured in the presence of inosine or in regular media were transferred intravenously. Tumor growth was monitored by bioluminescent imaging. […] P values determined at day 43 by using Mann-Whitney test. […] E: Concentration of CD45+ T cells detected in blood of mice at D33 post-CAR T cell injection. […] F: Schematic of the experimental design. G: GD2.bbz-CAR T cells grown in media containing indicated inosine concentration between day 3 and day 10 post-activation and stimulated with 143b tumor. IL-2 and IFNg secretion after 24 hrs of co-culture was measured. Data are mean±s.d. of duplicate or triplicate wells. Representative of n=3 donors shown. […] Reprograming is due to an increase in glutaminolysis and polyamine synthesis and downregulation of CD73, FOXP3, A2aR and c-AMP response transcription factors.
In this example, the in vivo anti-tumor potency of CAR T cells manufactured in the presence or absence of inosine was assessed. In this particular example, the feasibility of manufacturing GD2 CAR T cells in inosine media in the clinical setting was assessed. 2.5×10^8 enriched CD4+ and CD8+ T cells from a healthy donor were activated with anti-CD3/CD28-coated beads and transduced using clinical grade GD2.bbz vector at MOI=10 (FIG. 6A). From day 3, T cells were continued to be cultured in regular-or inosine containing media in a semi-closed culture system using G-Rex platform. […] There was no difference in product viability (FIG. 6D), nor transduction efficiency nor CD4 vs CD8 ratio (FIG. 6E).
A total of 2.5×10^8 enriched CD4+ and CD8+ T cells from a healthy donor were activated with anti-CD3/CD28-coated beads and transduced using clinical grade GD2-CAR vector at an MOI of 10 (FIG. 13A). On day 3, T cells were maintained in standard RPMI media containing glucose or switched to inosine-containing RPMI without glucose in a semi-closed G-Rex culture platform.

[3] = tested on: GD2-CAR T cells; test: GD2-CAR T cells manufactured in TexMACS with increasing concentrations of INO
Protocol: as §1
Finally, to test compatibility of adding INO to GMP-grade culture media that contains glucose, GD2-CAR T cells were manufactured in TexMACS™ with increasing concentrations of INO (FIG. 13F).

SMILES: O=c1[nH]cnc2c1ncn2[C@@H]1O[C@H](CO)[C@@H](O)[C@H]1O [inosine, Inosine]
- ATP5 (Complex V) protein expression ([1]; CD8+ CAR T cells, day 17, flow): increased level
- bioenergetic profile ([1]; Seahorse, day 11): shifting it towards oxidative phosphorylation
- extracellular acidification rate (ECAR) ([1]; Seahorse, day 11 post-activation): significantly decreased
- total amount of ATP generated ([1]; day 14): increased
- total cells after expansion ([2]; G-Rex, inosine media from day 3, day 7, one donor (FIG. 6B)): 384.3×10^6 total cells
- total cell yield ([2]; day 7, INO RPMI without glucose from day 3, n=2 donors, s.e.m.): 238.5×10^6+145.8
- CD4 vs CD8 ratio ([2]; day 7, inosine vs control): no difference
- frequency of naive and central memory GD2 CAR T cells ([2]; day 7, inosine vs control): higher frequency
- product viability ([2]; day 7, inosine vs control): no difference
- transduction efficiency ([2]; day 7, inosine vs control): no difference
- antigen induced cytokine production ([3]; INO 11 mM vs lower concentrations): trend toward greater antigen induced cytokine production
- cell proliferation ([3]; TexMACS (contains glucose) with increasing INO): significantly decreased cell proliferation
- CAR T cell viability ([3]; TexMACS with increasing INO): no changes
- secretion of IL-2 and IFNg ([3]; challenged with 143b cells, 24 hrs, INO day 3 to day 10): dose-dependent increase
- CD62L expression ([3]; vs control cells): increased CD62L expression
